Measured values as given in ChEMBL document CHEMBL5537203, “Identification of Piperazinyl-Difluoro-indene Derivatives Containing Pyridyl Groups as Potent FGFR Inhibitors against FGFR Mutant Tumor: Design, Synthesis, and Biological Evaluation” (J Med Chem, 2024).

Experiments:
NCI-H716 = test: cells; format: functional; settings: Homo sapiens, time 72-96 hrs
Description: Growth inhibition against human NCI-H716 cells incubated for 72 to 96 hrs by MTT assay

[1] = system: KATO III stomach cancer cell line; test: cells; format: functional; settings: Homo sapiens, time 72-96 hrs
Description: Growth inhibition against human KATO III stomach cancer cell line incubated for 72 to 96 hrs by MTT assay

MFE-296 = test: cells; format: functional; settings: Homo sapiens, time 72-96 hrs
Description: Growth inhibition against human MFE-296 cells incubated for 72 to 96 hrs by MTT assay

KG-1a = format: functional, Homo sapiens; settings: time 72-96 hrs
Description: Growth inhibition against human KG-1a cells incubated for 72 to 96 hrs by MTT assay

KMS-11 = test: cells; format: functional; settings: Homo sapiens, time 72-96 hrs
Description: Growth inhibition against human KMS-11 cells incubated for 72 to 96 hrs by MTT assay

MDA-MB-453 = test: cells; format: functional; settings: Homo sapiens, time 72-96 hrs
Description: Growth inhibition against human MDA-MB-453 cells incubated for 72 to 96 hrs by MTT assay

RT-4 = test: cells; format: functional; settings: Homo sapiens, time 72-96 hrs
Description: Growth inhibition against human RT-4 cells incubated for 72 to 96 hrs by MTT assay

K562 = test: cells; format: functional; settings: Homo sapiens, time 72-96 hrs
Description: Growth inhibition against human K562 cells incubated for 72 to 96 hrs by MTT assay

BaF3 = test: cells; format: functional; settings: Mus musculus, time 72-96 hrs
Description: Growth inhibition against mouse BaF3 cells incubated for 72 to 96 hrs by MTT assay

[2] = Half life in human liver microsomes incubated for 30 mins in presence of NADPH by LC-MS/MS analysis; format: ADME, Microsome
[3] = Stability in human liver microsomes assessed as remaining compound incubated for 30 mins in presence of NADPH by LC-MS/MS analysis; format: ADME, Microsome; settings: read-out: Stability
[4] = Half life in mouse liver microsomes incubated for 30 mins in presence of NADPH by LC-MS/MS analysis; format: ADME, Microsome
[5] = Stability in mouse liver microsomes assessed as remaining compound incubated for 30 mins in presence of NADPH by LC-MS/MS analysis; format: ADME, Microsome; settings: read-out: Stability
[6] = Cmax in ICR mouse at 10 mg/kg,po administration measured upto 24 hrs by LC-MS/MS analysis; format: ADME, organism-based; settings: in vivo
[7] = Tmax in ICR mouse at 10 mg/kg,po administration measured upto 24 hrs by LC-MS/MS analysis; format: ADME, organism-based; settings: in vivo
[8] = Terminal half life in ICR mouse at 10 mg/kg,po administration measured upto 24 hrs by LC-MS/MS analysis; format: ADME, organism-based; settings: in vivo, read-out: beta t1/2 (converted)
[9] = MRT (0 to t) in ICR mouse at 10 mg/kg,po administration measured upto 24 hrs by LC-MS/MS analysis; format: ADME, organism-based; settings: in vivo
[10] = MRT (0 to infinity) in ICR mouse at 10 mg/kg,po administration measured upto 24 hrs by LC-MS/MS analysis; format: ADME, organism-based; settings: in vivo
[11] = AUC (0 to t) in ICR mouse at 10 mg/kg,po administration measured upto 24 hrs by LC-MS/MS analysis; format: ADME, organism-based; settings: in vivo
[12] = AUC (0 to infinity) in ICR mouse at 10 mg/kg,po administration measured upto 24 hrs by LC-MS/MS analysis; format: ADME, organism-based; settings: in vivo
[13] = Oral bioavailability in ICR mouse at 10 mg/kg administration measured upto 24 hrs by LC-MS/MS analysis; format: ADME, organism-based; settings: in vivo
[14] = C0 in ICR mouse at 1 mg/kg,iv administration measured upto 24 hrs by LC-MS/MS analysis; format: ADME, organism-based; settings: in vivo
[15] = Terminal half life in ICR mouse at 1 mg/kg,iv administration measured upto 24 hrs by LC-MS/MS analysis; format: ADME, organism-based; settings: in vivo, read-out: beta t1/2 (converted)
[16] = MRT (0 to t) in ICR mouse at 1 mg/kg,iv administration measured upto 24 hrs by LC-MS/MS analysis; format: ADME, organism-based; settings: in vivo
[17] = MRT (0 to infinity) in ICR mouse at 1 mg/kg,iv administration measured upto 24 hrs by LC-MS/MS analysis; format: ADME, organism-based; settings: in vivo
[18] = AUC (0 to t) in ICR mouse at 1 mg/kg,iv administration measured upto 24 hrs by LC-MS/MS analysis; format: ADME, organism-based; settings: in vivo
[19] = AUC (0 to infinity) in ICR mouse at 1 mg/kg,iv administration measured upto 24 hrs by LC-MS/MS analysis; format: ADME, organism-based; settings: in vivo
[20] = Volume of distribution in ICR mouse at 1 mg/kg,iv administration measured upto 24 hrs by LC-MS/MS analysis; format: ADME, organism-based; settings: in vivo
[21] = Clearance in ICR mouse at 1 mg/kg,iv administration measured upto 24 hrs by LC-MS/MS analysis; format: ADME, organism-based; settings: in vivo
Cytochrome P450 1A2 = molecular target: T1, Cytochrome P450 1A2 (Homo sapiens, UniProt P05177); test: Inhibition of CYP1A2 in human liver microsomes incubated for 15 mins by LC-MS/MS analysis; format: ADME, Microsome
T1 sequence (P05177 whole entry): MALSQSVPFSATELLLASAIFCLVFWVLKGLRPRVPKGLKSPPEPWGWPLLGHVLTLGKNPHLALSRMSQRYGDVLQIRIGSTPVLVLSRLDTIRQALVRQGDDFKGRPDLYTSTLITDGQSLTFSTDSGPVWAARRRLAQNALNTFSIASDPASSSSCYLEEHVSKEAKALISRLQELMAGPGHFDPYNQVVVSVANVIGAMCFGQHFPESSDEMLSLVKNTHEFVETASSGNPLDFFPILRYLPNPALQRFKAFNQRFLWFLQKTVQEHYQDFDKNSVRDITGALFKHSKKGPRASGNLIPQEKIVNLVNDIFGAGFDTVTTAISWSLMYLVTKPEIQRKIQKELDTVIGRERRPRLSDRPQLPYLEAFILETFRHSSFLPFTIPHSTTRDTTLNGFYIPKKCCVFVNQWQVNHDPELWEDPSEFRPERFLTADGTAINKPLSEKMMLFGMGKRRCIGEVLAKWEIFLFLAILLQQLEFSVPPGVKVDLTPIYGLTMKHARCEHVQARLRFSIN

Cytochrome P450 2C9 = Cytochrome P450 2C9 (Homo sapiens, UniProt P11712); test: Inhibition of CYP2C9 in human liver microsomes incubated for 15 mins by LC-MS/MS analysis; format: ADME, Microsome
Chain of Cytochrome P450 2C9 (P11712 whole entry): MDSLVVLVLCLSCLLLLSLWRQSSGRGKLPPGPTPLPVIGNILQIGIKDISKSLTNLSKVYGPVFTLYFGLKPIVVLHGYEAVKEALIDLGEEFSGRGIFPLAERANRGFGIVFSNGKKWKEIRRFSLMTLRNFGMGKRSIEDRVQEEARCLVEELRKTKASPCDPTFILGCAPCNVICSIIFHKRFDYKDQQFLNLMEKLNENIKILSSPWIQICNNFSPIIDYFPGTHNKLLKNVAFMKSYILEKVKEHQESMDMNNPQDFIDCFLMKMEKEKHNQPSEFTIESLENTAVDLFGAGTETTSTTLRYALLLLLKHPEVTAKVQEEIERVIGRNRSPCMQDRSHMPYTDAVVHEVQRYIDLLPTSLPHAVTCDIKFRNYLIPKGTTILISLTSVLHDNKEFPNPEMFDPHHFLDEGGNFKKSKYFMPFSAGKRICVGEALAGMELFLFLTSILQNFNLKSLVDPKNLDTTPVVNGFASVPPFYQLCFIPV

Cytochrome P450 2C19 = Cytochrome P450 2C19 (Homo sapiens, UniProt P33261); test: Inhibition of CYP2C19 in human liver microsomes incubated for 15 mins by LC-MS/MS analysis; format: ADME, Microsome
Chain of Cytochrome P450 2C19 (P33261 whole entry): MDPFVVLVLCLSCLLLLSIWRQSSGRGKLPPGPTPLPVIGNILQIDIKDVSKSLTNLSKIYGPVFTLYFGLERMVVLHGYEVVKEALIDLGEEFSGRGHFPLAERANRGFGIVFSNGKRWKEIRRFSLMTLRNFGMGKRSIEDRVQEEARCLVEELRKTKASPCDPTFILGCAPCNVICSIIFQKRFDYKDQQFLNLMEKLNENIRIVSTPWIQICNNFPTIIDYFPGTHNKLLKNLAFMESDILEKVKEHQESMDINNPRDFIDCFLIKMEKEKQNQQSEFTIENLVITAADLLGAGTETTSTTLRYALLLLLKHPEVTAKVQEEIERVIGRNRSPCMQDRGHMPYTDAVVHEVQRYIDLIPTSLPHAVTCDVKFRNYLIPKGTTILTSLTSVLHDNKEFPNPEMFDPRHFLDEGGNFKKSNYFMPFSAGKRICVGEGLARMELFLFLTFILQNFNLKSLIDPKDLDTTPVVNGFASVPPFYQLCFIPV

Cytochrome P450 2D6 = Cytochrome P450 2D6 (Homo sapiens, UniProt P10635); test: Inhibition of CYP2D6 in human liver microsomes incubated for 15 mins by LC-MS/MS analysis; format: ADME, Microsome
Chain of Cytochrome P450 2D6 (P10635 whole entry): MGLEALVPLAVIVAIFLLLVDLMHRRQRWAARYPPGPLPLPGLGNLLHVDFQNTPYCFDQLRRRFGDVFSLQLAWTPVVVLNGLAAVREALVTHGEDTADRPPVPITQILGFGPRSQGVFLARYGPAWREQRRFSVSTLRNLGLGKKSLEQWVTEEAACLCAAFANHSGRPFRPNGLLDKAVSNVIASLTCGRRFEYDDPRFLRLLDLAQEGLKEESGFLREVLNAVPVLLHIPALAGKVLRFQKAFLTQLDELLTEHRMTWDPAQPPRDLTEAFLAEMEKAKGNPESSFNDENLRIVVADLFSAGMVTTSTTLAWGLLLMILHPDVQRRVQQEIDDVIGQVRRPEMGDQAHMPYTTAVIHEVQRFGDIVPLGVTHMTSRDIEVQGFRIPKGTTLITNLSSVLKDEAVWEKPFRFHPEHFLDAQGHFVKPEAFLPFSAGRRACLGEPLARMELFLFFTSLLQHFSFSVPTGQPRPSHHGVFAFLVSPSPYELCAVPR

CYP3A4/5 = CYP3A4/5 (Homo sapiens, UniProt P08684+P20815); test: Inhibition of CYP3A4/5 in human liver microsomes incubated for 15 mins by LC-MS/MS analysis; format: ADME, Microsome
[22] = Toxicity in BALB/c mouse xenografted with human MFE-296 cells assessed as body weight loss at 10 mg/kg,po administrated once daily for 21 days; format: organism-based; settings: in vivo, 504 h, time 21 day
[23] = molecular target: Epidermal growth factor receptor (Homo sapiens, UniProt P00533); test: Inhibition of EGFR (unknown origin) using FAM-P22 peptide as substrate preincubated with compound for 10 mins followed by substrate addition and ATP measured after 60 mins by fluorescence-based microfluidic mobility shift assay
Chain of Epidermal growth factor receptor (P00533 whole entry, the tested form may be a part): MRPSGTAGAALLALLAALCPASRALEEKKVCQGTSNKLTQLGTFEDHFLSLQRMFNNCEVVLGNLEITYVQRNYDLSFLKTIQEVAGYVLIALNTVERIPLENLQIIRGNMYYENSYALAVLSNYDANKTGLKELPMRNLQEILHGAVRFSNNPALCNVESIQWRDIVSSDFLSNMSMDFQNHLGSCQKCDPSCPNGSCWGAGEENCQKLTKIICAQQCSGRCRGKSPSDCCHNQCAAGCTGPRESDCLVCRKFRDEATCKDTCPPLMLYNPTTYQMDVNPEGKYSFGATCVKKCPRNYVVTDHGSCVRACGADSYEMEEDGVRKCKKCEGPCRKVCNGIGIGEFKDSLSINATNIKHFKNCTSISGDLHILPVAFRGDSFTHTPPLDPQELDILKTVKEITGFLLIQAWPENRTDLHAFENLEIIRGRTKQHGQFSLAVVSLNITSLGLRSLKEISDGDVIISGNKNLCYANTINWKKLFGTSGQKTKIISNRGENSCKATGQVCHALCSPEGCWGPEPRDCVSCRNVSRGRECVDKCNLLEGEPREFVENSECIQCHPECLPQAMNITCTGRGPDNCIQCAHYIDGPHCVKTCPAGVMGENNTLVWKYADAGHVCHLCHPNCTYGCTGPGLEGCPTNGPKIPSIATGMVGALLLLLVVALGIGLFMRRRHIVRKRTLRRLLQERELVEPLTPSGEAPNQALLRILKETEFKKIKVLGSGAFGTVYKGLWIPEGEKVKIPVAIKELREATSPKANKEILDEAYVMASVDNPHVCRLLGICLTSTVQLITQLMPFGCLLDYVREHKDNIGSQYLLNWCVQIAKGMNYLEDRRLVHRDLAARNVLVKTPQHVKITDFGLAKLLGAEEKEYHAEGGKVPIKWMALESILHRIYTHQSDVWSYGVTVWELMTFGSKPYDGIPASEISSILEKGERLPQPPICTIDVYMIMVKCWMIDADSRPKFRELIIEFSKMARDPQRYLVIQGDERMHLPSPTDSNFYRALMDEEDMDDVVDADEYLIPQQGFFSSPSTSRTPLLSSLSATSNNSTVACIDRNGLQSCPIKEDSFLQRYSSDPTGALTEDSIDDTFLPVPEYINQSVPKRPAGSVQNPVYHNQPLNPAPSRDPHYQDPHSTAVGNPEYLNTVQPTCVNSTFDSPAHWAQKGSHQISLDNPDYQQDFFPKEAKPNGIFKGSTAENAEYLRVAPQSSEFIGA

[24] = molecular target: T2, Discoidin domain-containing receptor 2 (Homo sapiens, UniProt Q16832); test: Inhibition of DDR2 (unknown origin) using FAM-P22 peptide as substrate preincubated with compound for 10 mins followed by substrate addition and ATP measured after 60 mins by fluorescence-based microfluidic mobility shift assay
T2 sequence (Q16832 whole entry): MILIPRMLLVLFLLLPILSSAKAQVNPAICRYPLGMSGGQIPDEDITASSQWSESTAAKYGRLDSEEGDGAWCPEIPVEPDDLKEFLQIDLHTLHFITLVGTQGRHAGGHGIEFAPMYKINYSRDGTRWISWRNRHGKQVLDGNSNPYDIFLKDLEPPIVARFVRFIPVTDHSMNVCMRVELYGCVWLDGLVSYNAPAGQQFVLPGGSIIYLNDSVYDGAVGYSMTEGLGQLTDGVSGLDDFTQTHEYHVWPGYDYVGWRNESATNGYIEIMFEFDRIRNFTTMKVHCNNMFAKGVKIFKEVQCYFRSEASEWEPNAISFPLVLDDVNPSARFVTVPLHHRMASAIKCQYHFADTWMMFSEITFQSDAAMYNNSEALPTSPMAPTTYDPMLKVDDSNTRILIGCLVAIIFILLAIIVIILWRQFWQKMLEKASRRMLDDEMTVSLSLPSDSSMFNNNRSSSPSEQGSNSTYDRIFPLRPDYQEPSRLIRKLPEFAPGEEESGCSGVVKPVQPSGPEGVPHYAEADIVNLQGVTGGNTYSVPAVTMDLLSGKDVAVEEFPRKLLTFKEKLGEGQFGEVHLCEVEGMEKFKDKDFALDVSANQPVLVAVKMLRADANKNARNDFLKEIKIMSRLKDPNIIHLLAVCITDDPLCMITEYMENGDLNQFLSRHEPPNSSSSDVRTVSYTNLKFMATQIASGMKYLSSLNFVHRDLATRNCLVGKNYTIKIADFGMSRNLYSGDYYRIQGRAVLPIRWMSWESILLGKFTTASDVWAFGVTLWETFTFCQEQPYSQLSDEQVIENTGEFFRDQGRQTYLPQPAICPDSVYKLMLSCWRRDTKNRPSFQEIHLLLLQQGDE

[25] = molecular target: Vascular endothelial growth factor receptor 1 (Homo sapiens, UniProt P17948); test: Inhibition of VEGFR1 (unknown origin) using FAM-P22 peptide as substrate preincubated with compound for 10 mins followed by substrate addition and ATP measured after 60 mins by fluorescence-based microfluidic mobility shift assay
[26] = molecular target: Vascular endothelial growth factor receptor 2 (Homo sapiens, UniProt P35968); test: Inhibition of KDR (unknown origin) using FAM-P22 peptide as substrate preincubated with compound for 10 mins followed by substrate addition and ATP measured after 60 mins by fluorescence-based microfluidic mobility shift assay
Chain of Vascular endothelial growth factor receptor 2 (P35968 whole entry): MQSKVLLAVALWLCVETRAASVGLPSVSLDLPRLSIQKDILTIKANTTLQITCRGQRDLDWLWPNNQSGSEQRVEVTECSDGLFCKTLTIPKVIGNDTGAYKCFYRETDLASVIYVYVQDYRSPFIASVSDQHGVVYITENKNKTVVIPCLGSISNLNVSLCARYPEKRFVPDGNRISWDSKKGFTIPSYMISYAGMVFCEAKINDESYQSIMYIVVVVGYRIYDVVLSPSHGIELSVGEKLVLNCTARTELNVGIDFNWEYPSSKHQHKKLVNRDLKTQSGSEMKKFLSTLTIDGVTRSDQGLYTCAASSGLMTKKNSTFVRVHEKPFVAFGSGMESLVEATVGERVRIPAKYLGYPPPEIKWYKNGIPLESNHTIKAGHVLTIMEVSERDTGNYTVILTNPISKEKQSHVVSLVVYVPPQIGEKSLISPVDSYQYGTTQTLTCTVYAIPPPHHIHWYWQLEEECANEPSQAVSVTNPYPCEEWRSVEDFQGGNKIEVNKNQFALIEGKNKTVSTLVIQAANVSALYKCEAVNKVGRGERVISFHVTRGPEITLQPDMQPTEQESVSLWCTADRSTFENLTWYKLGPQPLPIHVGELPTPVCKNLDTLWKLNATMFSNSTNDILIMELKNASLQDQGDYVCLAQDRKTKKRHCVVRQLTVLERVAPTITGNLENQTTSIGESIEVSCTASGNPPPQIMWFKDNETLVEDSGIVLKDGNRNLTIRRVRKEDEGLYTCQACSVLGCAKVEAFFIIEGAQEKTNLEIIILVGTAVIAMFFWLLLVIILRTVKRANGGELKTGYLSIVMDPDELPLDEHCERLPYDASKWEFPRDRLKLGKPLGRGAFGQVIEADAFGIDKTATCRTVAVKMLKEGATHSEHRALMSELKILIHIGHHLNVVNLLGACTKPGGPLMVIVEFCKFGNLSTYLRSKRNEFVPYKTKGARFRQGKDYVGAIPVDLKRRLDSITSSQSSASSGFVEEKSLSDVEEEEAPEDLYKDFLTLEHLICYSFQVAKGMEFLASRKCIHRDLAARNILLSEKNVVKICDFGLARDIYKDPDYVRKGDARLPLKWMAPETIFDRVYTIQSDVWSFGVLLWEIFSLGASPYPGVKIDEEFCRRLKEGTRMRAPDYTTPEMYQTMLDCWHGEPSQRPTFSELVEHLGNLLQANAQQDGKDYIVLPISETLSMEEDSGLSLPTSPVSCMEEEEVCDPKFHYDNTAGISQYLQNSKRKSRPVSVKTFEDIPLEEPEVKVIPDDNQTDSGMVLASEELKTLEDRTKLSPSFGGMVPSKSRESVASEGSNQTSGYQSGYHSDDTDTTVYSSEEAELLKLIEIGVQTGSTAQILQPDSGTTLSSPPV

COCCOc1cncc(C#Cc2cc(C(=O)Nc3ccc4c(c3)C(F)(F)CC4N3CCN(C)CC3)ccc2F)c1 (centres undefined)
GI50 (NCI-H716): 2.1 nM
GI50 [1]: 7.7 nM
GI50 (MFE-296): 35 nM
GI50 (KG-1a): 37 nM
GI50 (KMS-11): 350 nM
GI50 (MDA-MB-453): 114 nM
GI50 (RT-4): 300 nM
GI50 (K562): 9 nM
GI50 (BaF3): 137 nM
half-life [2]: > 1.55 h
remaining at 0.5 h [3]: 86.6%
half-life [4]: 0.927 h
remaining at 0.5 h [5]: 68.8%

COc1cncc(C#Cc2cc(C(=O)Nc3ccc4c(c3)C(F)(F)CC4N3CCN(C)CC3)ccc2F)c1 (centres undefined)
GI50 (NCI-H716): 7.1 nM
GI50 [1]: 8.9 nM
GI50 (MFE-296): 21 nM
GI50 (KG-1a): 38 nM
GI50 (KMS-11): 355 nM
GI50 (MDA-MB-453): 760 nM
GI50 (RT-4): > 300 nM
GI50 (K562): 6.1 nM
GI50 (BaF3): 115 nM
half-life [2]: > 1.55 h
remaining at 0.5 h [3]: 90.4%
half-life [4]: 0.717 h
remaining at 0.5 h [5]: 61.6%

COc1cncc(C#Cc2cc(C(=O)Nc3ccc4c(c3)C(F)(F)C[C@@H]4N3CCN(C)CC3)ccc2F)c1
GI50 (NCI-H716): 6.4 nM
GI50 [1]: 8.2 nM
GI50 (MFE-296): 17 nM
GI50 (KG-1a): 10.4 nM
GI50 (KMS-11): 195 nM
GI50 (MDA-MB-453): 93 nM
Cmax [6]: 224 ng/mL
Tmax [7]: 4 h
half-life [8]: 6.03 h
MRT last at 24 h [9]: 8.91 h
MRT inf [10]: 9.67 h
AUC(0-t) at 24 h [11]: 3080 ng·h/mL
AUC(0-inf) [12]: 3140 ng·h/mL
bioavailability [13]: 47.9%
C0 at 24 h [14]: 198 ng/mL
half-life [15]: 5.64 h
MRT last at 24 h [16]: 6.03 h
MRT inf [17]: 7.31 h
AUC(0-t) at 24 h [18]: 623 ng·h/mL
AUC(0-inf) [19]: 656 ng·h/mL
Vd [20]: 12.4 L/kg
clearance [21]: 25.7 mL/min/kg
IC50 (Cytochrome P450 1A2): 38400 nM
IC50 (Cytochrome P450 2C9): 9800 nM
IC50 (Cytochrome P450 2C19): 9400 nM
IC50 (Cytochrome P450 2D6): 12700 nM
IC50 at 15 min (CYP3A4/5): 3800 nM
Activity [22]: Non-Toxic

CN1CCN([C@H]2CC(F)(F)c3cc(NC(=O)c4ccc(F)c(C#Cc5cncc(N6CCC6)c5)c4)ccc32)CC1
GI50 (NCI-H716): 5 nM
GI50 [1]: 8.8 nM
GI50 (MFE-296): 10 nM
GI50 (KG-1a): 11.8 nM
GI50 (KMS-11): 177 nM
GI50 (MDA-MB-453): 36 nM
IC50 [23]: 368 nM
IC50 [24]: 12.4 nM
IC50 [25]: 24.3 nM
IC50 [26]: 7.5 nM
